These are literature values, as cited in patent US20160101079A1 (priority 2014, published 2016).

For data set [1], the system named is glycoprotein shedding (Ebola virus GP; TACE).
Data set [2] concerns Human Foreskin (HF) cells infected with HSV-2-strain G. The conditions noted are these: 3 to 1.5 mM.
The subject of a further data set is rotaviruses. The conditions noted are these: 10 mM.

For `CNC(=O)[C@@H](NC(=O)[C@H](CC(C)C)[C@H](O)C(=O)NO)C(C)(C)C` [BB2516], in data set [1], the “concentration at which inhibition of GP shedding was observed” value (“concentration at which inhibition” for short) is on record as 0.5 mM.
As to `CNC(=O)[C@H](Cc1c[nH]c2ccccc12)NC(=O)[C@@H](CC(=O)NO)CC(C)C` [GM6001], the “concentration at which inhibition” value in data set [1] is listed as 5 mM.
Turning to `O=C(O)c1ccccn1` [picolinic acid], the “effect on HSV-2 infected HF cells” value in data set [2] is “cause apoptosis of HF infected cells”.
On to `COc1ccc(S(=O)(=O)N2Cc3ccccc3C[C@@H]2C(=O)NO)cc1` [MMP-8 inhibitor I], for which the “concentration at which inhibition” value in data set [1] is listed as 5 mM.
As for `O=C(O)CN(CCN(CC(=O)O)CC(=O)O)CC(=O)O` [EDTA, ethylenediaminetetraacetic acid], the “effect on rotavirus particles” value in the data set on rotaviruses is on record as “single-shelled, double-layered, non-infectious viral particles”.
